Measurements taken from ChEMBL document CHEMBL1671716, “Antimicrobial susceptibility patterns for recent clinical isolates of anaerobic bacteria in South Korea” (2010).
In brackets after ≈: the same amount, converted by molar mass.

Assays:
Clostridium perfringens = test: Antimicrobial activity against Clostridium perfringens after 48 hrs by agar dilution method; assay type: functional
Clostridioides difficile = test: Antimicrobial activity against Clostridium difficile after 48 hrs by agar dilution method; assay type: functional

For `CN[C@H](CC(C)C)C(=O)N[C@H]1C(=O)N[C@@H](CC(N)=O)C(=O)N[C@H]2C(=O)N[C@H]3C(=O)N[C@H](C(=O)N[C@H](C(=O)O)c4cc(O)cc(O)c4-c4cc3ccc4O)[C@H](O)c3ccc(c(Cl)c3)Oc3cc2cc(c3O[C@@H]2O[C@H](CO)[C@@H](O)[C@H](O)[C@H]2O[C@H]2C[C@](C)(N)[C@H](O)[C@H](C)O2)Oc2ccc(cc2Cl)[C@H]1O` [VANCOMYCIN], which MIC50 (Clostridium perfringens) is on record?
Its MIC50 is 0.5 mg/L (≈ 0.345 µM).

And the MIC90 (Clostridium perfringens)?
Its MIC90 is 0.5 mg/L (≈ 0.345 µM).

And the MIC50 (Clostridioides difficile)?
The MIC50 was 0.5 mg/L (≈ 0.345 µM).

What about the MIC90 (Clostridioides difficile) of the same molecule?
The MIC90 was 2 mg/L (≈ 1.38 µM).
